The text below walks through data of article PMC8138732, “Comparative study of His- and Non-His-tagged CLIC proteins, reveals changes in their enzymatic activity” (Biochemistry and Biophysics Reports, 2021).

In one test the target is non-His-tagged CLIC1 (Homo sapiens, UniProt O00299). Particulars: 1 mM GSH fixed, 250 uM NADPH, 0.5 ug/mL GR, 10 uM enzyme, 5 mM potassium phosphate, 1 mM EDTA, pH 7, 37 C; imidazole-free storage buffer.
The target in another test is T1, non-His-tagged CLIC3 (Homo sapiens, UniProt O95833).
T1 construct: E. coli BL21(DE3); Ni-NTA and SEC; reduced soluble monomer
As to the kind of experiment: HEDS assay coupled to glutathione reductase, NADPH consumption at […] nm. The test is classed as biochemical. Particulars: 1 mM GSH fixed, 250 uM NADPH, 0.5 ug/mL GR, 10 uM enzyme, 5 mM potassium phosphate, 1 mM EDTA, pH 7, 37 C; imidazole-free storage buffer.

T1 sequence (O95833 whole entry): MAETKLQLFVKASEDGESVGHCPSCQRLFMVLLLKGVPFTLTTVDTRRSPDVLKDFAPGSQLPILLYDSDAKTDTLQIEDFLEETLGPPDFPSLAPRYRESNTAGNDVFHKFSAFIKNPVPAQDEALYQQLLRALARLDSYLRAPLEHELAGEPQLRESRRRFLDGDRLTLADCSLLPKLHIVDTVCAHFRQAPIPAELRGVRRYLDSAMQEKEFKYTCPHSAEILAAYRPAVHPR

In the case of `OCCSSCCO` [HEDS], the results for the Km at non-His-tagged CLIC1 and at non-His-tagged CLIC3 were 2500 µM and 994 µM, respectively.

As a reminder, the Km is the substrate concentration at which the rate is half of its maximum.
